Results published in the supplement of paper PMC10307832.

Tests used:
Assay in all cases: relative viability (nuclei count vs DMSO), 5 days (fraction); higher = more cells survive
[1] = compound: CN(c1ncccc1CNc1nc(Nc2ccc3c(c2)CC(=O)N3)ncc1C(F)(F)F)S(C)(=O)=O + CC1(C)CCC(c2ccc(Cl)cc2)=C(CN2CCN(c3ccc(C(=O)NS(=O)(=O)c4ccc(N[C@H](CCN5CCOCC5)CSc5ccccc5)c(S(=O)(=O)C(F)(F)F)c4)cc3)CC2)C1 [Navitoclax] (partner 0.5 µM)
Procedure, shortened: (§1)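 One day after seeding in 1536-well plates, lung cancer cell lines were dosed by pin tool. Dosing was either single-drug or a fixed anchor-drug dose plus five library-drug doses (not always all listed) in √10 steps. After 5 days, nuclei were stained in one fix-and-stain step and counted on 4× images, and relative viability is the nuclei count of treated wells over that of vehicle wells, given as the median of duplicate plates.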

[2] = compound: CN(c1ncccc1CNc1nc(Nc2ccc3c(c2)CC(=O)N3)ncc1C(F)(F)F)S(C)(=O)=O + Cc1cc(Nc2cc(N3CCN(C)CC3)nc(Sc3ccc(NC(=O)C4CC4)cc3)n2)n[nH]1 [Tozasertib] (partner 0.1 µM)
Procedure, shortened: as §1

[3] = compound: CN(c1ncccc1CNc1nc(Nc2ccc3c(c2)CC(=O)N3)ncc1C(F)(F)F)S(C)(=O)=O + C[C@@H](Oc1cc(-c2cnn(C3CCNCC3)c2)cnc1N)c1c(Cl)ccc(F)c1Cl [Crizotinib] (partner 1 µM)
Procedure, shortened: as §1

[4] = compound: CN(c1ncccc1CNc1nc(Nc2ccc3c(c2)CC(=O)N3)ncc1C(F)(F)F)S(C)(=O)=O + O=C(CCCCCCC(=O)Nc1ccccc1)NO [Vorinostat] (partner 1 µM)
Procedure, shortened: as §1

Cell Line	relative viability ([1]; first compound 0.01 µM)	relative viability ([1]; first compound 0.03162 µM)	relative viability ([1]; first compound 0.1 µM)	relative viability ([1]; first compound 0.3162 µM)	relative viability ([1]; first compound 1 µM)	relative viability ([2]; first compound 0.01 µM)	relative viability ([2]; first compound 0.03162 µM)	relative viability ([2]; first compound 0.1 µM)	relative viability ([2]; first compound 0.3162 µM)	relative viability ([2]; first compound 1 µM)	relative viability ([3]; first compound 0.01 µM)	relative viability ([3]; first compound 0.03162 µM)	relative viability ([3]; first compound 0.1 µM)	relative viability ([3]; first compound 0.3162 µM)	relative viability ([3]; first compound 1 µM)	relative viability ([4]; first compound 0.01 µM)	relative viability ([4]; first compound 0.03162 µM)	relative viability ([4]; first compound 0.1 µM)	relative viability ([4]; first compound 0.3162 µM)	relative viability ([4]; first compound 1 µM)
NCI-H2087	1.06	1.12	1.05	1.04	0.937	0.224	0.238	0.236	0.293	0.207	0.787	0.915	0.784	0.889	0.749	0.722	0.872	0.901	0.613	0.589
LU99A	0.737	0.955	0.824	0.91	0.788	0.319	0.301	0.297	0.258	0.246	0.594	0.584	0.584	0.758	0.633	0.531	0.526	0.571	0.635	0.531
HCC-366	1.03	1.18	1.08	1.04	0.927	0.129	0.143	0.126	0.0925	0.0651	0.588	0.964	0.509	0.606	0.236	0.412	0.394	0.365	0.366	0.295
EKVX	0.974	1.02	0.944	0.852	0.81	0.456	0.428	0.454	0.339	0.316	0.895	0.828	0.98	0.801	0.789	0.638	0.746	0.638	0.627	0.494
NCI-H2342	–	–	–	–	–	0.524	0.493	0.561	0.409	0.489	–	–	–	–	–	0.772	0.848	0.696	0.646	0.803
NCI-H1755	1.01	1.03	0.972	0.94	0.875	0.519	0.533	0.593	0.472	0.61	0.873	0.94	0.889	0.781	0.777	0.79	0.756	0.787	0.75	0.66
NCI-H647	1.16	1.21	1.16	1.04	1.07	0.315	0.224	0.498	0.353	0.248	1.01	1.43	1.05	1	1.06	0.473	0.742	0.476	0.577	0.631
LC-2-ad	0.556	0.479	0.433	0.364	0.322	0.417	0.433	0.546	0.426	0.442	0.491	0.465	0.514	0.435	0.469	0.739	0.756	0.674	0.635	0.584
NCI-H1793	0.407	0.562	0.498	0.377	0.303	0.32	0.379	0.332	0.222	0.23	–	–	–	–	–	0.866	0.724	0.785	0.699	0.713
